# How the values were obtained:
# RAW 264.7 cells [1] = assay: Cell proliferation assay (BrdU incorporation); format: cell-based, mouse; settings: IP6 for 24 hours, BrdU for 6 h
# Method: RAW cells 264.7 were seeded at a density of 2,500 cells/well in a 96-well plate and cultured for 24 h. After cell attachment, culture media was changed and different doses of IP6 were added. Cells were cultured for additional 24 hours and BrdU was added for the last 6 hours. Incorporation of BrdU was determinated by Cell Proliferation ELISA kit as described by the manufacturer.
# bone resorption = settings: background statement; cited from earlier work
# RAW 264.7 cells [2] = assay: Real-time RT-PCR of osteoclast gene and functional markers; format: cell-based, mouse; settings: RANKL-treated cells, 5 days
# Method: To examine the effect of IP6 on OCL formation, 20,000 cells/cm2 were seeded in 24-well plates and, after 24 h, the culture medium was replaced with media containing 100 ng/mL RANKL and different doses of IP6 (0.1, 1, 10, 100 μM). Treatments were added after changing the media every 48 h over the course of 5 days. The effect of IP6 on OCL formation was assessed by analysis of the number of TRAP-positive cells, gene expression levels of osteoclast and functional markers, resorption activity on dentin discs and actin ring formation.
# Total RNA was isolated with Tripure from cells treated as describe above, following the instructions of the manufacturer. RNA was quantified using a spectrophotometer set at 260 nm (Nanodrop, Thermo Fisher Scientific Inc, US).
# The same amount of total RNA ([…]) from each sample was reverse transcribed to cDNA at 37° C. for 60 minutes in a final volume of […], using High Capacity RNA to cDNA kit (Applied Biosystems, USA). Each cDNA was diluted 1/5 and aliquots, to avoid freezing and thawing cycles, were stored at −20° C. until the PCR reactions were carried out.
# Real-time PCR was performed for two housekeeping genes: 18S rRNA, GAPDH; three osteoclast gene markers: TRAP, CalcR, CFMS; and four osteoclast functional markers: CtsK, MMP-9, Car2 and H+-ATPase.
# Real-time PCR was performed in the Lightcycler 480® (Roche Diagnostics, Mannheim, Germany) using SYBR green detection. Each reaction contained 7 μl Lightcycler-FastStart DNA MasterPLUS SYBR Green I (containing Fast Start Taq polymerase, reaction buffer, dNTPs mix, SYBRGreen I dye and MgCl2), 0.5 μM of each, the sense and the antisense specific primers (Table 1) and 3 μl of the cDNA dilution in a final volume of 10 μl. The amplification program consisted of a preincubation step for denaturation of the template cDNA (5 min 95° C.), followed by 45 cycles consisting of a denaturation step (10 s 95° C.), an annealing step (10 s 60° C.) and an extension step (10 s 72° C.). After each cycle, fluorescence was measured at 72° C. A negative control without cDNA template was run in each assay.
# To allow relative quantification after PCR, standard curves were constructed from standard reactions for each target and housekeeping genes. The crossing point readings for each of the unknown samples were used to calculate the amount of either the target or housekeeping relative to a standard curve, using the Second Derivative Maximum Method. Relative mRNA levels were calculated as the ratio of relative concentration for the target genes in the same sample using the Advanced Relative Quantification Method provided by the LightCycler 480 analysis software version 1.5 (Roche Diagnostics, Mannheim, Germany).
# RAW 264.7 cells [3] = assay: LDH cytotoxicity assay; format: cell-based, mouse; settings: IP6 for 24 hours
# Method: RAW cells 264.7 were seeded at a density of 20,000 cells/cm2 in 24-well plate and cultured for 24 h. After cell attachment, culture media was changed and different doses of) IP6 were added. Cells were cultured for additional 24 hours and culture media was collected to test cytotoxicity (LDH activity). LDH cytotoxicity assay was performed using the Cytotoxicity Detection Kit according to the manufacturer's protocol. This colorimetric assay quantifies activity of LDH released from the cytosol of damaged cells into the supernatant and thus serves as an index of cell death.
# Results were presented relative to the LDH activity in the media of control cells (low control, 0% of cell death) and of cells treated with 1% Triton X-100 (high control, 100% death) using the equation: Cytotoxicity (%)=(exp value−low control)/(high control−low control)*100. 3. Cell Proliferation Assay
# [4] = system: human umbilical cord mesenchymal stem cells (hUC-MSCs); assay: Real-time RT-PCR of osteoblast markers in hUC-MSCs under osteogenic conditions; format: cell-based; settings: 4 μM IP6 for 19 days
# Method: hUC-MSCs from two different donors were seeded (n=12) in 24-well plates and grown to confluence in growth media consisting of DMEM-LG supplemented with penicillin (50 IU/ml), streptomycin (50 μg streptomycin/mil) and 20% FBS. Cells were cultured at 37° C. in a humidified atmosphere of 5% CO2. At confluence (designated as day 0), cells were grown in differentiation media consisting of growth media supplemented with hydrocortisone (200 nM), ascorbic acid (50 μg/ml) and β-glycerophosphate (10 mM). Cell culture media, with or without IP6, was refreshed twice a week over a 19-day time period. The experimental procedure developed in example 5 was used. In this example, Real-time PCR was performed for two housekeeping genes: beta-actin, GAPDH; and four osteoblast markers: Runx2, Col1A, ALP and OC.
# RAW 264.7 cells [5] = assay: RANKL-induced osteoclast (OCL) formation, TRAP staining; format: cell-based, mouse; settings: 5 days
# Method: Osteoclast-like cells were generated in culture from RAW 264.7 cells. 20,000 cells/cm2 were seeded in 24-well plates and placed in the CO2 incubator overnight to allow the cells to attach to the surface. After 24 h, the culture medium was replaced with media containing 100 ng/mL RANKL. Osteoclasts were successfully generated by dosing with RANKL every 48 h over the course of 5 days. To confirm the generation of multinucleated osteoclast-like cells, the cultured cells were stained for the enzyme TRAP using the TRAP-staining kit, according to the manufacturer's instructions. TRAP is the enzyme that has been used as a marker of osteoclast function for more than 20 years. TRAP-positive multinucleated osteoclasts were visualized by light microscopy and photographed. Each OCL formation assay was performed at least 3 times. To examine the effect of IP6 on OCL formation, 20,000 cells/cm2 were seeded in 24-well plates and, after 24 h, the culture medium was replaced with media containing 100 ng/mL RANKL and different doses of IP6 (0.1, 1, 10, 100 μM). Treatments were added after changing the media every 48 h over the course of 5 days. The effect of IP6 on OCL formation was assessed by analysis of the number of TRAP-positive cells, gene expression levels of osteoclast and functional markers, resorption activity on dentin discs and actin ring formation.
# [6] = background statement; cited from earlier work
# RAW 264.7 cells [7] = assay: Resorption pit assay on dentine discs; format: cell-based, mouse; settings: 1 μM IP6 during osteoclastogenesis
# Method: RAW 264.7 cells were seeded on dentine slices at a density of 20,000 cells/cm^2. To study the effect of IP6 on OCL formation cells were cultured with media containing 100 ng/mL RANKL and IP6 (1 μM) over the course of the entire experiment. To study the effect of IP6 on mature osteoclasts-like cells. OCLs were generated by dosing RAW 264.7 cells with RANKL over the course of 6 days and then treated with IP6 (1 μM) for 4 days. After the culturing period, cells were removed from the dentine slices by sonication in 0.1 N NaOH for 2 minutes, stained in hematoxylin for 40 seconds and washed in distilled water. The surface of each dentine slice was examined by light microscopy for evidence of lacunar resorption and quantitative analysis of the resorption area was performed with Image J software 1.44p (NIH, USA).
smiles,measurement,setting,value
"O=P(O)(O)O[C@H]1[C@H](OP(=O)(O)O)[C@@H](OP(=O)(O)O)[C@H](OP(=O)(O)O)[C@@H](OP(=O)(O)O)[C@H]1OP(=O)(O)O [IP6, Myo-inositol-1,2,3,4,5,6-hexakisphosphate]",cell proliferation (BrdU),RAW 264.7 cells [1],without affecting
same,bone resorption in animal models of osteoporosis,bone resorption,inhibitor of bone resorption
same,MMP-9 mRNA levels,RAW 264.7 cells [2],decreased
same,TRAP mRNA levels,RAW 264.7 cells [2],decreased
same,calcitonin receptor mRNA levels,RAW 264.7 cells [2],decreased
same,cathepsin K mRNA levels,RAW 264.7 cells [2],decreased
same,cell viability (LDH activity),RAW 264.7 cells [3],without affecting
same,ALP mRNA levels compared to the control group,[4],higher
same,Col1A mRNA levels compared to the control group,[4],lower
same,OC mRNA levels compared to the control group,[4],higher
same,Runx-2 mRNA levels compared to the control group,[4],higher
same,osteoblast differentiation of hUC-MSCs,[4],increases
same,osteoclastogenesis induced by RANKL,RAW 264.7 cells [5]; 100 ng/mL RANKL,decreases
same,number of TRAP positive cells,RAW 264.7 cells [5]; RANKL-treated cells,decreased
same,hydroxyapatite dissolution,[6],potent inhibitor
same,RANKL-induced osteoclast bone resorption ability,RAW 264.7 cells [7],inhibits

# Source: patent US9433710B2, “Biocompatible implant” (LABORATORIS SANIFIT, S. L., priority 2011, dated 2016)
